Where “and” joins values, the source holds several entries; their conditions need not be identical. Equal values may be shown once. Read-outs that look alike come from different tables or passages of the source.
Tests used:
hDHODH enzyme GST-tagged = hDHODH enzyme GST-tagged (Homo sapiens, UniProt Q02127); assay: hDHODH inhibition assay (DCIP reduction)
Description: The enzyme (around 60 nM) was preincubated for 5 min at 37 °C in Tris-buffer solution (pH 8.0) with coenzyme Q10 (100 μM), tested compounds at different concentrations (final DMSO concentration 0.1% v/v), and DCIP (50 μM). The reaction was initiated by addition of DHO (500 μM) and the reduction was monitored at λ = 650 nm. […] Values are means ± SE of three independent experiments.

[1] = tested on: unrelated GST-conjugated-protein; assay: Fluorescence control with an unrelated GST-conjugated protein; assay type: binding; details: fixed amount of compound, increasing protein concentration
Description: Because the isolated hDHODH used for the previous measurements, and in inhibition enzymatic assay, is the GST-tagged protein, we decided to confirm that the observed fluorescence enhancement resulted from specific binding of inhibitor 11a to the target protein and not from nonspecific interactions with the GST portion.
Apoptosis test rescue with uridine:
Figure S4. A) Analysis of the apoptotic rate induced by compound 11a, on THP-1 cell line (n = 3) with or without exogenous uridine at 100 µM. Compounds were utilized at 1 µM; apoptotic was evaluated after 3 days of treatment. DMSO: dimethyl sulfoxide. Cpd: compound. Ur: uridine. Statistical significance: Student’s t test: **p<0.01. B) Representative Annexin V-FITC/PI flow cytometry dot plots of THP-1 cells after 3 days of treatment in presence of vehicle (left), compound 11a (middle), compound 11a and uridine 100 µM. Data are representative of 3 independent experiments.
Figure S5. Fluorescence-based analysis of the potential contribution of GST-tag to the emission restoration of compound 11a. […]
increasing concentration versus a fixed amount of compound 11a. […]
show protein-dependent fluorescence restoration. […]

hCoV-OC43 = assay: Antiviral focus-forming reduction assay (FFRA) in HCT-8 cells; assay type: cell-based, human coronavirus OC43
Description: After virus adsorption (2 h at 33 °C), the infected cell cultures were incubated in medium containing the corresponding compounds plus 1% (w/v) methylcellulose (Merck) and 1% (v/v) FBS. […] Viral foci were microscopically counted, and the mean plaque counts for each drug concentration was converted in viral titer (PFU/mL).

HCT-8 cells [2] = assay: Cytotoxicity assay (CellTiter-Glo); assay type: cell-based, human; details: uninfected HCT-8 cells, 72 h
Description: (§1) After 72 h of incubation, the number of viable cells was determined using the CellTiter-Glo Luminescent assay (Promega, Milan, Italy). The cytotoxicity of the tested compounds was expressed as cytotoxic concentration (CC50).

[3] = Cytotoxicity assay (CellTiter-Glo); assay type: cell-based, human; details: human, HCT-8 cells (uninfected), uninfected HCT-8 cells
Description: as §1

hDHODH = hDHODH (Homo sapiens, UniProt Q02127); assay: Fluorescence emission of the compound in the presence of recombinant hDHODH; assay type: binding; details: compound 1 μM, hDHODH 31.5 to 504 nM, TRIS pH 8
Sequence of hDHODH (Q02127 whole entry): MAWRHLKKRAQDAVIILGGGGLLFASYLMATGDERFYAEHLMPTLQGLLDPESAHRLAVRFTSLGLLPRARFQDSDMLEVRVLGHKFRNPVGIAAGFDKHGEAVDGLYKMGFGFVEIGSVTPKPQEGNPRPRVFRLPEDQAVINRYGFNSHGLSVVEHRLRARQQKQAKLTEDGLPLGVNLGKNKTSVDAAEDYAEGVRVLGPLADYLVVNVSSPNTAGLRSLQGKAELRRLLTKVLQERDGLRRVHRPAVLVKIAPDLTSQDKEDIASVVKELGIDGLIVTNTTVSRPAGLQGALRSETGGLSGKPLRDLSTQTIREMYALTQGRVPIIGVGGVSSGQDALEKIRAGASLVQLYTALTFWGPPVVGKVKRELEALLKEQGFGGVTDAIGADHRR
Description: In particular, we observed an increase in fluorescence intensity in correlation with the growing amount of protein, as shown in Figure .
UV–Vis absorption spectra were recorded on a Cary60 spectrometer. Photoemission spectra, luminescence lifetimes, and quantum yields were acquired with a HORIBA Jobin Yvon IBH Fluorolog-TCSPC spectrofluorometer equipped with a Quanta-φ integrating sphere. […] Emission-decay data were collected in 2048 channels to 10000 counts in the peak channel. IRF was measures using colloidal silica suspension in H2O to scatter light. Data were analyzed with the software DAS6 (TCSPC decay-analysis software) using a nonlinear least-squares method to fit of the decay to a sum of exponentials. The value of χ^2, residuals and the autocorrelation function (Durbin-Watson parameter) were used to determine the quality of the fit. […] After 5 min incubation UV–Vis absorption spectra were recorded on a Cary60 spectrophotometer and photoemission spectra were acquired with a HORIBA Jobin Yvon IBH Fluorolog-TCSPC spectrofluorometer with excitation λ of 366 nm and maximum of emission at 500 nm; a.u. data were analyzed with GraphPad Prism using One Site – Specific Binding equation.

THP-1 cells = assay: Confocal fluorescence microscopy and Red-MitoTracker co-localization; assay type: cell-based, human; details: 10 μM, 24 h
Description: Thus, compounds 11a and 14 were subsequently examined in the context of living cells to determine whether they retained their fluorescence profile after entry into target cells. First, both compounds were incubated for 24 h with THP-1 cells at a concentration of 10 μM. After washing with PBS buffer, cells were analyzed under confocal microscopy using an appropriate laser stimulation (λex: 405 nm, λem: […]) to excite the molecules.
(§2) Co-localization experiments were performed to examine whether compound 11a may reach the cellular compartment where hDHODH is located. For this, a specific mitochondrial stain marker in the two cell lines in which the biological activities of 11a were observed, namely THP-1 and HCT-8 cells, was used. The compound was therefore incubated with THP-1 cells (Figure ) or HTC-8 cells (Figure ) at 37 °C for 24 h. Then, cells were stained with Red-MitoTracker (a specific fluorescent probe for mitochondrial targeting) for 30 min at 37 °C.
(§3) For fluorescence analysis, 10 μM of target compounds were incubated with THP-1 for 24 h. After washing the cells with a PBS buffer solution, they were analyzed under confocal microscopy imaging technique using the appropriate laser to excite the molecule. For the colocalization experiments, HCT-8 cells (55,000 cells/well) were plated on μ-Slide 8 well high glass bottom (IBIDI, Gräfelfing, Germany) and treated for 24 h with 10 μM of 11a at 37 °C. Then, cells were stained with MitoTracker Red CMXRos (ThermoFischer, Carlsbad, CA, USA) (1:4000) for 30′ at 37 °C and after washing with PBS buffer solution, cells were visualized with a Leica TCS SP5 multiphoton-inverted confocal microscope equipped with LAS AF matrix software. Live cells were imaged using an HCX PL APO 63×/1.4 NA oil immersion objective. Images were collected with excitation of ligand 11a at λex = 405 nm and emission at λem = 500 nm, Red-MitoTracker at λex = 581 nm and emission at λem = 605 nm.

[4] = Cytotoxicity assay (CellTiter-Glo); assay type: cell-based; details: human, MRC-5 cells; 72 h incubation; read-out: MRC-5 CC50 (C.L. 95 %)
Description: as §1

HCT-8 cells [5] = assay: Confocal Red-MitoTracker co-localization; assay type: cell-based, human; details: 10 μM, 24 h
Description: as §2
as §3, with “Images were collected with excitation of ligand 11a at λex = 405 nm and emission at λem = 500 nm, Red-MitoTracker at λex = 581 nm and emission at λem = 605 nm.” left out

[6] = Photophysical characterization (absorption, emission, QY, lifetime); assay type: physicochemical
Description: UV–Vis absorption spectra were recorded on a Cary60 spectrometer. Photoemission spectra, luminescence lifetimes, and quantum yields were acquired with a HORIBA Jobin Yvon IBH Fluorolog-TCSPC spectrofluorometer equipped with a Quanta-φ integrating sphere. […] Emission-decay data were collected in 2048 channels to 10000 counts in the peak channel. IRF was measures using colloidal silica suspension in H2O to scatter light. Data were analyzed with the software DAS6 (TCSPC decay-analysis software) using a nonlinear least-squares method to fit of the decay to a sum of exponentials. The value of χ^2, residuals and the autocorrelation function (Durbin-Watson parameter) were used to determine the quality of the fit. For measurements in the presence of hDHODH, 11a was incubated, at 1 μM concentration in TRIS Buffer 0.1 mM (pH 8) with 0.1% DMSO, alone or with different concentrations of recombinant protein ranging from 31.5 to 504 nM concentration. After 5 min incubation UV–Vis absorption spectra were recorded on a Cary60 spectrophotometer and photoemission spectra were acquired with a HORIBA Jobin Yvon IBH Fluorolog-TCSPC spectrofluorometer with excitation λ of 366 nm and maximum of emission at 500 nm; a.u. data were analyzed with GraphPad Prism using One Site – Specific Binding equation.

Sequence of hDHODH enzyme GST-tagged (Q02127 whole entry): as above

SMILES: Oc1nn2ccccc2c1/C=C/c1c(F)c(F)c(-c2ccccc2)c(F)c1F [Compound 11a, (E)-3-(2-(2,3,5,6-Tetrafluoro-[1,1’-biphenyl]-4-yl)vinyl)pyrazolo[1,5-a]pyridin-2-ol]
- IC50 (hDHODH enzyme GST-tagged): 0.17 µM
- fluorescence in the presence of an unrelated GST-conjugated protein [1]: no restoration of fluorescence
- EC50 (hCoV-OC43; Betacoronavirus 1, OC43, HCT-8, 72 h, read-out: EC50, concentration inhibiting 50% of virus replication, hCoV-OC43, FFRA in HCT-8 cells, 72 h p.i., full treatment): 2.3 ± 0.5 µM
- EC90 (hCoV-OC43; Betacoronavirus 1, OC43, HCT-8, 72 h, read-out: EC90, concentration inhibiting 90% of virus replication): 23.3 ± 0.4 µM
- SI, Selectivity Index (ratio of CC50 to EC50) (hCoV-OC43; HCT-8 CC50 / hCoV-OC43 EC50): 131
- CC50 (HCT-8 cells [2]): 301 ± 8.97 µM
- CC50 at 72 h [3]: 301 ± 9 µM
- fluorescence in the presence of the recombinant protein (hDHODH): restoration of fluorescence
- intracellular localization (THP-1 cells; THP-1): localize in the cytosol
- fluorescence in living cells (THP-1 cells; THP-1, λex 405 nm): recovered a strong fluorescence
- co-localization with Red-MitoTracker (THP-1 cells; THP-1 cells): localize into mitochondria
- CC50 at 72 h [4]: 7 µM
- co-localization with Red-MitoTracker (HCT-8 cells [5]): localize into mitochondria
- emission in PBS solution ([6]; PBS, polar protic solvent): completely quenched
- emission in TRIS buffer ([6]; TRIS buffer (pH 8), conditions of the enzymatic assay, no protein): absence of emission
- Lifetime ([6]; in ACN): <1 ns
- QY (luminescence quantum yield) ([6]; in ACN): 0.12
- Stokes shift ([6]; in ACN): 4174 cm^–1
- λabs ([6]; in ACN): 442 nm
- λem ([6]; in ACN): 535 nm and 542 nm
